Earlier results as cited in patent publication US20120252695A1 (Janssen R&D Ireland, priority 2009, published 2012).

System: HCV
Details: carriers of two copies of the advantageous IL28B variant; multi-ethnic population

IFN-α
patients who cleared the virus and remained virus-free 24 weeks post-treatment: approximately 80%
